Measurements reported in patent US20240382437A1, “TREATMENT OF ACUTE TISSUE INJURY” (OBVIA PHARMACEUTICALS LTD., priority 2021, published 2024).

Tests used:
[1] = tested on: transplanted BN kidney; experiment: Histology of transplanted BN kidneys 20 hr after allograft transplant into LEW rats; format: in vivo, rat; conditions: 20 hr post-transplant
Method: LT (left), RT (right), MTD (Maximum Tolerated Dose), IP (intraperitoneal).
(B,C,D) BN kidneys 20 hr following transplant into LEW rats. “20 hr” control kidneys (B,C) were flushed with room temperature UW Solution prior to transplant, and +PrC-210 kidneys (D) were flushed with room temperature UW Solution containing 30 mM PrC-210 prior to transplant, and recipient LEW rat also received three intraperitoneal systemic PrC-210 doses in the eight hours following transplant. Panel B red arrows highlight tubulitis pathology, and Panel C yellow arrows highlight peritubular capillaritis pathology.
Operator randomly collected sample images of renal tubules from each of the indicated kidney groups in panels A,B,C. Then, using an ImageJ macro, H/E images (e.g., FIG. 3 panels A-C) were analyzed, and above-threshold pink or blue pixels were selected and enumerated, and their ratio was then calculated and plotted to provide an estimate of kidney white blood cell infiltration.
(§1) To determine PrC-210 efficacy in suppressing inflammation-generated damage to a transplanted, allograft organ, we used an allograft rat kidney transplant model that largely eliminated the induction of the ischemia and reperfusion insults in transplant, and created only the third inflammation insult by allograft transplanting a kidney from a Brown strain (BN) rat into a recipient Lewis strain (LEW) rat (FIG. 1). PrC-210 was administered both pre-and post-implantation to determine its protective effect in suppressing any inflammation-associated damage to the transplanted BN kidney in the LEW rat. Brown Rat kidneys were flushed with UW solution containing PrC-210 and immediately transplanted into syngeneic Lewis Rat recipients. Ischemic time was virtually eliminated. Immediately following implant, and for 8 hr following kidney implant, recipient rats received systemic PrC-210 injections at doses that would enable continuous free radical-scavenging within the transplanted kidney. Transplanted kidneys and blood plasma were then harvested 20 hr following transplant to enable measurement of both PrC-210-conferred i) suppression of inflammatory by-products and ii) kidney protection.
The same blinded histology sections were examined for mononuclear white cell infiltration.

[2] = tested on: BN allograft kidneys; experiment: Kidney function (serum creatinine and serum BUN) 20 hr after transplant of the BN kidney into a LEW rat; format: in vivo; conditions: three IP PrC-210 injections
Text: Rats either received no PrC-210 (“20 Hr”) or three IP PrC-210 injections in the 20 hr period following transplant (“20 Hr +PrC-210”), before recipient rat was euthanized and serum was collected. P values are indicated. To determine PrC-210 efficacy in suppressing inflammation-generated damage to a transplanted, allograft organ, we used an allograft rat kidney transplant model that largely eliminated the induction of the ischemia and reperfusion insults in transplant, and created only the third inflammation insult by allograft transplanting a kidney from a Brown strain (BN) rat into a recipient Lewis strain (LEW) rat (FIG. 1). PrC-210 was administered both pre-and post-implantation to determine its protective effect in suppressing any inflammation-associated damage to the transplanted BN kidney in the LEW rat. Brown Rat kidneys were flushed with UW solution containing PrC-210 and immediately transplanted into syngeneic Lewis Rat recipients. Ischemic time was virtually eliminated. Immediately following implant, and for 8 hr following kidney implant, recipient rats received systemic PrC-210 injections at doses that would enable continuous free radical-scavenging within the transplanted kidney. […] Serum creatinine and serum BUN were also measured to assess function in the BN allograft kidneys 20 hr after transplant (FIG. 4).

[3] = tested on: caspase 3,7; experiment: Activated caspase 3,7 activity in post-transplant kidney supernatant, measured enzymatically; format: in vivo, rat; conditions: 20 hr after transplant; PrC-210 in UW Solution plus systemic doses; 60 min reaction; FIG. 5
Method: Kidney supernatant activated caspase 3,7 activity was measured enzymatically in a 60 min reaction.
as §1

[4] = tested on: TIMP-1; experiment: TIMP-1 ELISA of serum and kidney homogenate 20 hr after transplant; format: in vivo, rat; conditions: 20 hr post-transplant, kidney homogenates and sera, FIG. 6
Method: (§2) TIMP-1, TNF-alpha and MIP-3A/CCL20 levels were determined by ELISA analysis. P values are indicated.
as §1, with “Immediately following implant, and for 8 hr following kidney implant, recipient rats received systemic PrC-210 injections at doses that would enable continuous free radical-scavenging within the transplanted kidney. Transplanted kidneys and blood plasma were then harvested 20 hr following transplant to enable measurement of both PrC-210-conferred i) suppression of inflammatory by-products and ii) kidney protection.” left out
(§3) In screening experiments, kidney homogenate supernates from 0 hr controls and 20 hr no treatment kidneys were screened with the Proteome Profiler 29 cytokine array to detect altered, inflammation-associated, cytokine and chemokine expression levels 20 hr post-transplant. […] Individual ELISA plates were then used to quantify these changes in kidney homogenates and sera, now including rats treated with PrC-210 as well. […]

[5] = tested on: TNF-alpha; experiment: TNF-alpha ELISA of serum and kidney homogenate 20 hr after transplant; format: in vivo, rat; conditions: 20 hr post-transplant, kidney homogenates and sera, FIG. 6
Method: as §2
as §1, with “Immediately following implant, and for 8 hr following kidney implant, recipient rats received systemic PrC-210 injections at doses that would enable continuous free radical-scavenging within the transplanted kidney. Transplanted kidneys and blood plasma were then harvested 20 hr following transplant to enable measurement of both PrC-210-conferred i) suppression of inflammatory by-products and ii) kidney protection.” left out
as §3

[6] = tested on: MIP-3a/CCL20; experiment: MIP-3a/CCL20 ELISA 20 hr after transplant; format: in vivo, rat; conditions: 20 hr post-transplant, FIG. 6D
Method: as §2
as §1, with “Immediately following implant, and for 8 hr following kidney implant, recipient rats received systemic PrC-210 injections at doses that would enable continuous free radical-scavenging within the transplanted kidney. Transplanted kidneys and blood plasma were then harvested 20 hr following transplant to enable measurement of both PrC-210-conferred i) suppression of inflammatory by-products and ii) kidney protection.” left out
as §3

[7] = tested on: Caspase 1; experiment: Caspase 1 in plasma of ICR mice after lethal radiation; format: in vivo; conditions: PrC-210 given before or after lethal radiation with 8.68 Gy, FIG. 8
Text: Caspase 1 is a central activator of acute inflammation in neutrophilic cells, which recruits both T-cells and monocytes and activates apoptosis.

[8] = tested on: Caspase 8; experiment: Caspase 8 in brains of ICR mice after lethal radiation; format: in vivo
Text: Caspase 8 inhibition (FIG. 9) in the brain after acute injury, such as radiation, is support for less TNF-α activation, and TRL—and FAS receptor upregulation in the brain. […] This supports that inflammation, such as activation of microglia is normalized after PrC-210.

[9] = in vivo; cited from earlier work
[10] = tested on: kidney; conditions: rodent kidney transplant study; cited from earlier work
[11] = tested on: kidney; conditions: rodent kidney transplant study; cited from earlier work; remark: listed apart in the source

SMILES: CNCC(CS)CNC [PrC-210, 3-(methylamino)-2-(methylaminomethyl) propane-1-thiol]
- integrity of the renal tubule brush border epithelium (histology) ([1]; PrC-210 via perfusing UW Solution and intraperitoneal injections, FIG. 3): preserved integrity of the renal tubular brush border
- Inflammatory Infiltration Score ([1]; compared with 0 hr control group, FIG. 3, D): statistically the same as the 0 hr control group
- Banff scores for tubulitis and peritubular capillaritis ([1]; kidney perfused with PrC-210-containing UW Solution (30 mM) plus three post-implant intraperitoneal doses, FIG. 2): equal to Banff scores of the “0 Hr” control BN group
- mononuclear white cell infiltration (blue pixels) ([1]; versus the untreated BN kidneys, P=0.011, FIG. 3): significantly suppressed
- serum creatinine ([2]; P=0.032, FIG. 4): significant reductions
- serum BUN ([2]; P=0.046, FIG. 4): significant reductions
- activated caspase activity in BN kidney homogenates [3]: same activated caspase activity to that seen in “O hr” control kidneys
- TIMP-1 levels [4]: decreased
- TNF-alpha levels [5]: decreased
- MIP-3a/CCL20 levels [6]: increased significantly higher
- Caspase 1 in plasma [7]: 6-day suppression
- duration of the effect on Caspase 8 ([8]; ICR mice brain, lethal radiation with 8.68 Gy): at least six days
- Caspase 8 in the brain ([8]; ICR mice, PrC-210 given before lethal radiation with 8.68 Gy, FIG. 9): inhibition
- hypotension side effects [9]: no measurable
- nausea/emesis side effects [9]: no measurable
- free-radical-induced kidney damage induced during 30 hr cold storage [10]: to background levels
- free-radical-induced kidney damage induced during reperfusion injury upon implant [11]: to background levels
